Patent US8133861B2, “Systemic purine administration: modulating axonal outgrowth of central nervous system neurons” (Alseres Pharmaceuticals, Inc., priority 2008, dated 2012)
“Also recorded” adds a separate entry of the source.

Experiments:
[1] = test system: spinal cord injury; test: Treatment of a subject with a spinal cord injury with inosine (Examples 7, 11); assay type: in vivo; details: inosine (50 mM) and NaCl (0.15M), 1 g/kg/day
Experimental: (§1) A subject with a spinal cord injury, is treated with an intravenous infusion of a solution of inosine (50 mM) and NaCl (0.15M) at a rate of 1 g/kg/day. […] A subject with a spinal cord injury, is treated with an subcutaneous injection of a solution of inosine (50 mM) and NaCl (0.15M) at a rate of 1 g/kg/day.

[2] = test system: traumatic brain injury; test: Treatment of a subject with a traumatic brain injury with inosine (Examples 8, 12); assay type: in vivo; details: inosine (50 mM) and NaCl (0.15M), 1 g/kg/day
Experimental: as §1, with “with a traumatic brain injury, is” for “with a spinal cord injury, is”, “treated with subcutaneous injection” for “treated with an subcutaneous injection”

[3] = Plasma inosine during 2-hr intravenous inosine infusion in rats (LC/MS/MS); assay type: in vivo, rat; details: for clearance: male, Sprague-Dawley, plasma, iv, infusion rate/steady-state concentration; for clearance / Plasma inosine concentration, maximal value / Steady-state mean plasma inosine level: rat
Experimental: (§2) Two groups of three rats were dosed intravenously with a total of 4 different concentrations of inosine and vehicle, providing within-subjects comparisons. Rats were anesthetized and each was surgically implanted above the medial prefrontal cortex (A-P +3.2 and M-L +1.0 from Bregma, D-V −2.0 from the skull surface) with an intracerebral guide cannula that was replaced after three days by a microdialysis probe. The microdialyses probes were continually flushed with artificial cerebrospinal fluid (aCSF). Catheters were inserted into the jugular vein for inosine dosing and into the femoral artery for blood collection.
(§3) Inosine formulated in aqueous bicarbonate buffer (pH 9.2) was administered by intravenous infusion for up to two hours to two groups of rats (N=3 per group) and the microdialysis probes were perfused with aCSF at a rate of 0.015 mL/minute. One group received nominal dose rates of 0 (vehicle), 100, and 300 mg/kg/hour, and the other group received nominal dose rates of 0, 500, and 700 mg/kg/hour. Each nominal infusion rate was 10 mL/kg/hour and was separated by a 2-day washout period.
(§4) Blood samples and brain microdialysates were collected prior to each dose to establish basal concentrations of inosine, and for a period of 2 hrs after each dose to determine the percent of change (increase, decrease, or none) relative to basal. Microdialysate and blood plasma inosine concentrations were measured using an LC/MS/MS assay. The lower limit of quantitation of the rat plasma analysis and the CNS microdialysate was 0.25 ng/mL.
(§5) All study subjects were dosed via JVC catheters without handling. Prior to collecting pre-dose microdialysates, glass vials were loaded with the appropriate drug solution and connected to an Empis system. All rats received the doses of inosine they were intended to receive, as the infusion rate was ˜50 μl/min over the 2 hr dosing period. Two days later, all rats received the doses of inosine they were intended to receive, as the infusion rate was ˜50 μl/min over the 2 hr dosing period. All rats then received reduced doses of inosine, as the infusion rat was reduced to ˜40 μl/min over a 2 hr dosing period.
(§6) Samples of CNS microdialysate (0.03 mL) and arterial blood (0.15 mL) were taken for analysis of inosine concentration before infusion, and at specified times after the start of the infusions (20, 40, 60, 80, and 120 minutes).
(§7) Changes in inosine concentrations (percent of baseline) were determined by dividing a particular post-dose inosine concentration (ng/mL) by the average of 4 pre-dose (baseline) inosine concentrations (ng/mL) and multiplying this value by 100%. Where plasma inosine (μg/mL) values appeared to reach steady-state by inspection of the last three time points, approximately values for clearance (L/kg/hour) were obtained from the relationship, clearance=infusion rate (mg/kg/hour)/steady-state concentration (mg/L). Mean percent of baseline changes in inosine concentrations were plotted for each treatment condition.

[4] = test system: stroke; test: Treatment of a subject with an onset of stroke with inosine (Examples 6, 10); assay type: in vivo; details: inosine (50 mM) and NaCl (0.15M), 1 g/kg/day
Experimental: as §1, with “an onset of stroke,” for “a spinal cord injury,”

[5] = Inosine prototype formulations: approximate potency, solubility and precipitation; assay type: physicochemical
Experimental: A number of inosine formulations were examined. Preparatory steps were as follows:
Inosine protype formulations were prepared by adding inosine drug substance to tare vials containing about 3-5 mL of aqueous solutions containing various pharmaceutical excipients in various concentrations. […] Common I.V. solutions such as phosphate buffered saline, normal saline and 5% dextrose in water are noted.
Megulmine is known to function both as a solubilizing and alkalizing agent, thus precluding the need for a buffering species which would unfavorably increase ionic strength in the formulation.
The composition of each formulation is provided in Table I. The pH of the formulation is reported for those formulations for which it was tested.

[6] = test system: rat hemisection model of spinal cord injury; test: Rat dorsal hemisection model of spinal cord injury, BBB score of locomotor function; assay type: in vivo; details: approximately 2 mg/kg/hr
Experimental: This example considers intravenous infusion of inosine in rodent model of acute spinal cord injury. Rats were anesthetized and each was subjected to laminectomy in the thoracic region of the spinal cord, followed by dorsal hemisection of the spinal cord that included severance of the cortical spinal tract as a model of spinal cord injury (SCI). These rats were divided into two groups: one group was dosed by continuous intravenous infusion of 70 mg/mL (261 mM) inosine formulated in 0.1% sodium bicarbonate solution, pH approximately 9.2, for four weeks, and the other group was dosed by continuous intravenous infusion with 0.1% sodium bicarbonate vehicle control for four weeks. The infusion rate was 10 microliters per hour for inosine (approximately 2 mg/kg/hr) and vehicle dosing, and the infusions were started immediately after the SCI. In this regard it is noted that dosing at 2 mg/kg/hr represents a dose of about 48 mg/kg/day. In a 70 kg subject this is equivalent to about 3-4 g/day. Attention is drawn to daily doses from about 1 g/day to about 10 gm/day with attention being drawn to doses of about 2 g/day and about 5 day.
Rats were evaluated one day post-SCI to verify completeness of the lesion, and then weekly for functional status by assessment using the Basso-Beattie-Bresnahan (BBB) score of locomotor function as judged by hind-limb function and forelimb:hind-limb coordination. […]

[7] = test system: central nervous system injury; test: Treatment of a subject with central nervous system injury with inosine (Examples 5, 9, 13); assay type: in vivo
Experimental: A subject with central nervous system injury, is treated with an intravenous infusion of a solution of inosine (50 mM) and NaCl (0.15M) at a rate of 1 g/kg/day. […] A subject with central nervous system injury, is treated with a subcutaneous injection of a solution of inosine (50 mM) and NaCl (0.15M) at a rate of 1 g/kg/day. […] A subject with central nervous system injury is treated with intravenous infusion of a solution of inosine in a formulation of 0.1% sodium bicarbonate 70 mg/mL inosine, pH9.2. The 250 ml of the inosine formulation is infused over a two hour period. This procedure is repeated for 14 days.

[8] = Brain (medial prefrontal cortex) microdialysate inosine during intravenous inosine infusion in rats; assay type: in vivo, rat; details: for CNS microdialysate inosine, percent of baseline / CNS microdialysate inosine, maximal increase (percent of baseline) / time to maximal increase of CNS microdialysate inosine: rat
Experimental: as §2, §3, §4
The subjects were naïve, male, Sprague-Dawley rats procured for this study from Harlan Spraque Dawley, Inc. (Indianapolis, Ind.). All rats selected for surgeries were quarantined, inspected and deemed acceptable for surgery by technicians qualified to make this assessment. Intracerebral guide cannulae were surgically implanted above the medial prefrontal cortex (mPFC). Rats were provided with a single dose of analgesic immediately after surgery to alleviate discomfort. Animals were inspected frequently during post-surgical recovery. After 3 days, the stylet in the intracerebral guide cannula was replaced with a microdialysis probe.
as §5, §6
Changes in inosine concentrations are expressed as percent of baseline in order to compare changes in inosine concentrations between treatments.
as §7

clearance ([3]; i.v. infusion 300 mg/kg/hour): 218 mL/min/kg | clearance ([3]; i.v. infusion 500 mg/kg/hour): 257 mL/min/kg | Plasma inosine concentration, maximal value ([3]; i.v. infusion 100 mg/kg/hr): ≤ 7.2 µg/mL | Steady-state mean plasma inosine level ([3]; i.v. infusion 300 mg/kg/hour): 22.8 µg/mL | Plasma inosine concentration, maximal value ([3]; i.v. infusion 300 mg/kg/hr): ≤ 26 µg/mL | Steady-state mean plasma inosine level ([3]; i.v. infusion 500 mg/kg/hour): 32.4 µg/mL | Plasma inosine concentration, maximal value ([3]; i.v. infusion 500 mg/kg/hr): ≤ 45 µg/mL | Plasma inosine concentration, maximal value ([3]; i.v. infusion 700 mg/kg/hr): ≤ 146 µg/mL | inosine plasma levels ([3]; rats, i.v., about 800 to 1000 mg/kg over about two hours): significant rise | inosine solubility ([5]; high pH environments): greatly enhanced | inosine solubility ([5]; higher concentrations of saline solutions): reduced solubility | CNS microdialysate inosine, percent of baseline ([8]; i.v. infusion 100 mg/kg/hour): 113-146% | CNS microdialysate inosine, percent of baseline ([8]; i.v. infusion 300 mg/kg/hour): 96-116% | CNS microdialysate inosine, maximal increase (percent of baseline) ([8]; i.v. infusion 500 mg/kg/hour): 526-632% | time to maximal increase of CNS microdialysate inosine ([8]; i.v. infusion 500 mg/kg/hr): ≤ 45 min | CNS microdialysate inosine, maximal increase (percent of baseline) ([8]; i.v. infusion 700 mg/kg/hour): 574-653% | time to maximal increase of CNS microdialysate inosine ([8]; i.v. infusion 700 mg/kg/hr): ≤ 45 min | inosine levels above background ([8]; rats, i.v., 160-200 mg/kg/2 hrs): approximately 170% | inosine levels above background ([8]; rats, i.v., 480-600 mg/kg/2 hrs): approximately 170% | interstitial inosine as compared with the baseline/predose concentrations ([8]; rats, i.v., about 800 to 1000 mg/kg over about two hours (Formulation 80 diluted to 50 mg/mL)): approximately 500%
Structure (SMILES): OC[C@H]1O[C@@H](n2cnc3c(O)ncnc32)[C@H](O)[C@@H]1O [inosine]
neurological deficit ([1]; Example 7: intravenous infusion): Amelioration of the neurological deficit | neurological deficit ([1]; Example 11: subcutaneous injection): Amelioration of the neurological deficit | neurological deficit ([2]; Example 8: intravenous infusion): Amelioration of the neurological deficit | neurological deficit ([2]; Example 12: subcutaneous injection): Amelioration of the neurological deficit | neurological deficit ([4]; Example 6: intravenous infusion): Amelioration of the neurological deficit | neurological deficit ([4]; Example 10: subcutaneous injection): Amelioration of the neurological deficit | functional outcome ([6]; continuous i.v. infusion, four weeks, P<0.01 weeks one and two, P<0.001 weeks three and four vs. vehicle): improves functional outcome; also recorded: continual or sustained improvement | BBB scores ([6]; three to four weeks post-SCI, continuous i.v. infusion 70 mg/mL, maximal score 21): near maximal possible values | neurological deficit ([7]; Example 5: intravenous infusion, inosine (50 mM) and NaCl (0.15M), 1 g/kg/day): Amelioration of the neurological deficit | neurological deficit ([7]; Example 9: subcutaneous injection, inosine (50 mM) and NaCl (0.15M), 1 g/kg/day): Amelioration of the neurological deficit | neurological deficit ([7]; Example 13: intravenous infusion, 0.1% sodium bicarbonate 70 mg/mL inosine pH9.2, 250 ml over two hours, 14 days): Amelioration of the neurological deficit
